The text below walks through data of PMC10672269, “Evaluation of Carbonic Anhydrase, Acetylcholinesterase, Butyrylcholinesterase, and α-Glycosidase Inhibition Effects and Antioxidant Activity of Baicalin Hydrate” (Life, 2023).

One test is described as follows: ABTS radical scavenging. As for the experimental part:
ABTS^•+ scavenging capacity of baicalin hydrate was measured according to a different work and was detected at 734 nm. ABTS^•+ was produced by the reaction of 2 mM ABTS in water with 2.45 mM potassium persulfate (K2S2O8), incubated in the dark at room temperature for five hours. Before usage, the ABTS^•+ solution was diluted to obtain an absorbance of 0.750 ± 0.025 at 734 nm with phosphate buffer (0.1 M, pH 7.4). Then, 1 mL of ABTS^•+ solution was added to 3 mL of baicalin hydrate in ethanol at different concentrations (10–30 µg/mL).
(§1) The IC50 values were determined using plots of activity (%) versus baicalin hydrate. Ki values and other inhibition factors were determined using Lineweaver–Burk graphs.

A short description of the next test: DMPD radical scavenging. The protocol:
Baicalin hydrate was evaluated for its capacity to remove DMPD^•+ using the Fogliano technique. For this purpose, 0.5 mL of FeCl3 (50 mM) and 1.5 mL of DMPD solution were added to the buffer solution (pH 5.3, 0.1 M). Then, this mixture was added to 1 mL of different concentrations (10–30 μg/mL) of baicalin hydrate. Then, the total volume was adjusted to 4 mL using deionized water. Finally, 1 mL of DMPD radicals were added, and their absorbances were recorded at 505 nm.
as §1

Test [1] is described as follows: Cu2+ reducing ability (cupric ions reducing). The note with it: at 30 μg/mL. As for the experimental part:
The technique of Apak et al. was utilized to assess the cupric ions (Cu^2+) reducing capacity of baicalin hydrate. After carrying out the required experimental procedures, the absorbances were detected at 450 nm using a spectrophotometer (Shimadzu, UV-1280, Kyoto, Japan). To do so, 0.2 mL CuCl2 solution (10 mM), 200 µL neocuproine solution (7.5 mM), and 200 µL CH3COONa buffer solution (1.0 M) were added to a test tube. The solution was mixed with different concentrations of baicalin hydrate (10–30 μg/mL). The total volume then reduced to 1.5 mL by adding distilled water and stored at room temperature. After 30 min incubation, the absorbances of the samples were measured at 450 nm. The increased absorbance of the reaction reflects increased reduction capacity.

The nature of test [2]: Fe3+ reducing ability (potassium ferricyanide reduction). The note with it: at 30 μg/mL. As for the experimental part:
According to prior investigation, baicalin hydrate’s ability to reduce Fe^3+ was achieved. Also, according to previous works, the Fe^3+-reducing effect of baicalin hydrate was tested. Briefly, 0.75 mL of deionized water and different doses of baicalin hydrate (10–30 μg/mL) were combined with 1.25 mL sodium phosphate buffer (pH 6.6, 0.2 M) and 1.25 mL of K3[Fe(CN)6] (1%). After 30 min incubation at 30 °C, the reaction medium was acidified with 1 mL trichloroacetic acid (10%, TCA) and re-incubated in the dark for 30 min. Finally, 0.5 mL of FeCl3 (0.1%) was transferred to the solution. The absorbance values of baicalin hydrate and references were recorded at 700 nm. The increased absorbance of the reaction mixture reflects an increasing reduction ability.

The nature of the next test: DPPH radical scavenging. The protocol: The Blois technique was used to test the DPPH^• scavenging capacity of baicalin hydrate. Briefly, 0.25 mL of different concentrations of baicalin hydrate in ethanol (10–30 μg/mL) and 0.25 mL of DPPH radical solution (0.3 mM) in ethanol were combined with 1 mL ethanol in test tubes. The mixture was then incubated at 37 °C for 30 min. The DPPH radical scavenging activities of baicalin hydrate were measured at 517 nm.
as §1

The conditions of test [3]: cited from earlier work; for median inhibitory concentration (IC50): DPPH tests in a different investigation; for DPPH radical scavenging IC50: previous reports.
Details of test [4]: method as in PMID 31832335, PMID 16243424, PMID 24980540, PMID 36297576, doi:10.1016/j.arabjc.2009.12.008. The note with it: at similar concentration; cited from earlier work.
On the set-up of test [5]: method as in PMID 31832335, PMID 16243424, PMID 36297576, doi:10.1016/j.fbio.2022.101557, PMID 37693735. The note with it: other existing studies; cited from earlier work.
For test [6] the following is noted: cited from earlier work.
The test system of the next test is AChE. The settings on record: cited from earlier work; for Ki: read-out: Ki towards AChE.
Details of test [7]: method as in PMID 31832335, PMID 36144638, PMID 37693735, PMID 21554120, PMID 36297576. The settings on record: at the same concentration; cited from earlier work.

Values joined by “and” are separate entries in the source; they are usually repeats but may differ in a detail not shown here. Equal values may be shown once. Read-outs that look alike come from different tables or passages of the source.

Regarding `COc1ccc(O)c(C(C)(C)C)c1` [BHA, butylated hydroxyanisole], the “ABTS•+ scavenging IC50” value in the test “ABTS radical scavenging” is 5.07 µg/mL. For the same molecule, the “DMPD•+ scavenging IC50” value in the test “DMPD radical scavenging” was 11.99 µg/mL. Further, the “Cu^2+ reducing, absorbance λ (450 nm)” value in [1] is 2.216 ± 0.059 and 2.216. The “Fe^3+ reducing, absorbance λ (700 nm)” value in test [2] was 2.347 ± 0.046 and 2.347. Moreover, in “DPPH radical scavenging”, the “DPPH• scavenging IC50” value was 10.10 µg/mL.
Turning to `Cc1cc(C(C)(C)C)c(O)c(C(C)(C)C)c1` [BHT, butylated hydroxytoluene], the “median inhibitory concentration (IC50)” value in test [3] is 21.7 µg/mL. Further, the “ABTS•+ scavenging IC50” value in the test “ABTS radical scavenging” came out at 6.99 µg/mL. The “DMPD•+ scavenging IC50” value in “DMPD radical scavenging” came to 8.72 µg/mL. The “Cu^2+ reducing, absorbance λ (450 nm)” value in test [1] was 2.044 ± 0.041 and 2.044. Besides, the “Fe^3+ reducing, absorbance λ (700 nm)” value in [2] is 0.952 ± 0.023 and 0.952. In addition, the “DPPH• scavenging IC50” value in the test “DPPH radical scavenging” amounted to 25.95 µg/mL.
As to `O=C(/C=C/c1ccc(O)c(O)c1)OCCc1ccccc1` [CAPE, caffeic acid phenethyl ester], the “Fe^3+ reducing absorbance” value in test [4] is 2.509. The “DPPH radical scavenging IC50” value in [3] was 3.30 µg/mL. Also, the “DMPD•+ scavenging IC50” value in [5] is 26.70 µg/mL. Also, the “ABTS•+ scavenging IC50” value in test [6] is 9.80 µg/mL.
`Cc1c(C)c2c(c(C)c1O)CCC(C)(C(=O)O)O2` (stereo not drawn) [Trolox]: the “ABTS•+ scavenging IC50” value in the test “ABTS radical scavenging” amounted to 6.16 µg/mL. In addition, the “DMPD•+ scavenging IC50” value in “DMPD radical scavenging” was 4.33 µg/mL. Also, the “Cu^2+ reducing, absorbance λ (450 nm)” value in [1] was 1.548 ± 0.024 and 1.548. For the same molecule, in test [2], the “Fe^3+ reducing, absorbance λ (700 nm)” value is 2.119 ± 0.001 and 2.119. For the same molecule, the “DPPH• scavenging IC50” value in the test “DPPH radical scavenging” is 7.059 µg/mL.
`O=C1O[C@H]([C@@H](O)CO)C(O)=C1O` [ascorbic acid, reference compound]: in test [3], the “median inhibitory concentration (IC50)” value was 19.6 µg/mL.
As for `O=C(O)[C@H]1O[C@@H](Oc2cc3oc(-c4ccccc4)cc(=O)c3c(O)c2O)[C@H](O)[C@@H](O)[C@@H]1O` [baicalin], the 50% inhibitory concentration (IC50) in test [3] (read-out: DPPH radical IC50) is 64900 nM; in the test with AChE (a different study, read-out: 50% inhibition of AChE activity (IC50)), 124000 nM.
As for `O=C(O)/C=C/c1ccc(O)c(O)c1` [caffeic acid], the “Fe^3+ reducing absorbance” value in test [4] is 2.769.
As to `O=c1oc2cc(O)ccc2c2oc3cc(O)ccc3c12` [coumestrol], the “Fe^3+ reducing absorbance” value in [4] is listed as 0.739. In [7], the “Cu^2+ reduction absorbance” value is reported as 0.780. In addition, in test [3], the “DPPH radical scavenging IC50” value is 25.95 µg/mL. For the same molecule, the inhibition constant (Ki) on AChE was 21.4 nM. In addition, in test [5], the “DMPD•+ scavenging IC50” value is 12.81 µg/mL. For the same molecule, the “ABTS•+ scavenging IC50” value in [6] was 12.24 µg/mL.
For the molecule `C=CCc1ccc(O)c(OC)c1` [eugenol], in test [7], the “Cu^2+ reduction absorbance” value was 0.762. Also, the “DPPH radical scavenging IC50” value in test [3] is 16.06 µg/mL. In addition, the “DMPD•+ scavenging IC50” value in test [5] is 10.04 µg/mL. Moreover, the “ABTS•+ scavenging IC50” value in [6] is 7.84 µg/mL.
Take `COc1ccc2c(c1O)-c1c(O)c(OC)cc3c1[C@H](C2)[N+](C)(C)CC3` [magnofluorine]: the “Fe^3+ reducing absorbance” value in test [4] was 0.967. In addition, the “Cu^2+ reduction absorbance” value in test [7] is listed as 0.468. Besides, the “DPPH radical scavenging IC50” value in [3] is 10.58 µg/mL. Also, in [5], the “DMPD•+ scavenging IC50” value is 15.16 µg/mL. Moreover, in test [6], the “ABTS•+ scavenging IC50” value was 27.61 µg/mL.
Take `CCCCCc1cc(O)cc(O)c1` [olivetol]: in [7], the “Cu^2+ reduction absorbance” value is 1.314. Besides, in [3], the “DPPH radical scavenging IC50” value was 17.77 µg/mL. In [5], the “DMPD•+ scavenging IC50” value is 19.25 µg/mL. Besides, in [6], the “ABTS•+ scavenging IC50” value was 1.94 µg/mL.
Turning to `O=c1c(O)c(-c2ccc(O[C@@H]3O[C@H](CO)[C@@H](O)[C@H](O)[C@H]3O)c(O)c2)oc2cc(O)cc(O)c12` [spiraeoside], in test [4], the “Fe^3+ reducing absorbance” value is 1.012. In addition, in test [7], the “Cu^2+ reduction absorbance” value is recorded as 0.519. Moreover, the “DPPH radical scavenging IC50” value in test [3] is 28.51 µg/mL. Further, the Ki on AChE was 3.4 nM. The “DMPD•+ scavenging IC50” value in test [5] was 8.15 µg/mL. Also, the “ABTS•+ scavenging IC50” value in test [6] was 7.48 µg/mL.
Turning to `O=C1c2c(O)cc(O)cc2OC(c2ccc(O)c(O)c2)C1O` (stereo not drawn) [taxifolin], the “Cu^2+ reduction absorbance” value in test [7] is given as 0.750. Moreover, the “DPPH radical scavenging IC50” value in test [3] was 77.00 µg/mL. Besides, the inhibition constant (Ki) at AChE was 16.7 nM. In addition, the “DMPD•+ scavenging IC50” value in test [5] is 173.25 µg/mL. Also, the “ABTS•+ scavenging IC50” value in test [6] is 0.83 µg/mL.
As to `O=c1[nH]c(=O)c2[nH]c(=O)[nH]c2[nH]1` [uric acid], in [4], the “Fe^3+ reducing absorbance” value is on record as 0.432.
Take `CC(=O)c1c(O)c(C)c(O)c2c1OC1=CC(=O)C(C(C)=O)C(=O)C12C` (stereo not drawn) [usnic acid]: in test [4], the “Fe^3+ reducing absorbance” value is listed as 0.278. Further, the “Cu^2+ reduction absorbance” value in test [7] is listed as 0.277. Moreover, the “DPPH radical scavenging IC50” value in test [3] is 49.50 µg/mL. The “DMPD•+ scavenging IC50” value in test [5] is 33.00 µg/mL. For the same molecule, in test [6], the ABTS•+ scavenging IC50 is 10.4 µg/mL.
As to `Cc1c(C)c2c(c(C)c1O)CC[C@@](C)(CCC[C@H](C)CCC[C@H](C)CCCC(C)C)O2` [α-Tocopherol], the “ABTS•+ scavenging IC50” value in the test “ABTS radical scavenging” was determined as 8.37 µg/mL. Besides, the “DMPD•+ scavenging IC50” value in “DMPD radical scavenging” turned out to be 7.11 µg/mL. Moreover, the “Cu^2+ reducing, absorbance λ (450 nm)” value in [1] was 0.816 ± 0.041 and 0.816. Moreover, the “Fe^3+ reducing, absorbance λ (700 nm)” value in [2] was 0.957 ± 0.018 and 0.957. In the test “DPPH radical scavenging”, the “DPPH• scavenging IC50” value came to 11.31 µg/mL.
Turning to L-Adrenaline [reference compound], in [3], the “DPPH radical scavenging IC50” value is 30.6 µg/mL. Moreover, the “DMPD•+ scavenging IC50” value in [5] is 15.6 µg/mL. The “ABTS•+ scavenging IC50” value in test [6] was 6.93 µg/mL.
Turning to tannic acid, the “Fe^3+ reducing absorbance” value in test [4] was 2.428.
